For nine compounds, TGI and GI50 results are on record in PubChem BioAssay (NCI).

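The compound was tested at five concentrations on cells cultured in 96-well plates, with a 48-hour exposure period. At the GI50, growth is halved. The concentration for full growth arrest is given as TGI.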 Where a SMILES comes first, the peptide text is derived from it. [ ]: non-standard residue; d: D form. The star is where a group is joined. ξ: configuration not given here. X16 = COC1=CC(=O)N(C(=O)C(O*)C(C)C)C1Cc1ccccc1; ξNMe2Val = CC(C)C(C(=O)*)N(C)C; NMeV = CN[CH](C(=O)O)C(C)C

Some test systems named below: SK-OV-3 ovarian; NCI/ADR-RES ovarian; OVCAR-5 ovarian; SW-620 colon; SNB-19 CNS; CCRF-CEM leukemia; SNB-75 CNS; SK-MEL-28 melanoma; UACC-257 melanoma; HCT-15 colon.
Common to all, as to test: NCI anticancer screen, dose series, 48 h

Consider `Nc1cc2c(cc1[N+](=O)[O-])[nH]c1c(-c3ccccc3)nccc12`, for which the TGI in the assay on SK-OV-3 ovarian was 55.9 µM; with NCI/ADR-RES ovarian, 41.4 µM; with OVCAR-5 ovarian, 98.3 µM; in the assay on SW-620 colon, > 81.5 µM; in the assay on SNB-19 CNS, 76.7 µM; in the assay with CCRF-CEM leukemia, 74.7 µM. Further, the TGI was 55.7 µM in the assay with SNB-75 CNS, 87.3 µM in the assay with SK-MEL-28 melanoma, 42.4 µM in the assay on UACC-257 melanoma and > 57.3 µM in the assay with HCT-15 colon.
Consider `COC1=CC(=O)N(C(=O)C(OC(=O)C2CCCN2C(=O)C2CCCN2C(=O)C(C(C)C)N(C)C(=O)C(NC(=O)C(C(C)C)N(C)C)C(C)C)C(C)C)C1Cc1ccccc1` (stereo unspecified) (ξNMe2Val-V[NMeV]PP-X16; configuration not given here), for which the GI50 in the assay with SK-OV-3 ovarian is 0.0042 µM; in the assay on OVCAR-5 ovarian, > 4 µM; in the assay with SW-620 colon, < 0.0004 µM; with SNB-19 CNS it was 0.00267 µM; with SNB-75 CNS, < 0.0004 µM; in the assay on HCT-15 colon, < 0.0004 µM. In addition, the TGI with NCI/ADR-RES ovarian was 0.256 µM; in the assay on OVCAR-5 ovarian, > 4 µM; in the assay on SW-620 colon, > 4 µM; in the assay on SNB-19 CNS it was 0.118 µM; in the assay on CCRF-CEM leukemia, 0.00744 µM; in the assay on SK-MEL-28 melanoma, 0.00681 µM. The compound also registered a TGI in the assay with HCT-15 colon of 0.431 µM.
With `CC1(C)CCc2c(cc3c(c2O)CCC(C)(C)O3)O1`, the TGI in the assay with SK-OV-3 ovarian, with NCI/ADR-RES ovarian, with OVCAR-5 ovarian, with SW-620 colon, with SNB-19 CNS and in the assay with CCRF-CEM leukemia was > 100 µM each time. For the same compound, the TGI in the assay with SNB-75 CNS, with SK-MEL-28 melanoma, in the assay with UACC-257 melanoma and in the assay with HCT-15 colon was > 100 µM in each case.
In the case of `CCOc1ncn(-c2ccc(NC(=S)Nc3cccc(O)c3)cc2)n1`, the TGI in the assay on SK-OV-3 ovarian, in the assay with OVCAR-5 ovarian, in the assay on SW-620 colon, in the assay with SNB-19 CNS, with CCRF-CEM leukemia and in the assay on SNB-75 CNS was > 100 µM throughout. Further, the TGI in the assay with SK-MEL-28 melanoma, with UACC-257 melanoma and with HCT-15 colon was > 100 µM each time.
Regarding `ClCCN(CCCl)Cc1ccc(Nc2ccnc3cc(Cl)ccc23)cc1`, the GI50 in the assay on SK-OV-3 ovarian was 1.44 µM; with NCI/ADR-RES ovarian it was 2.17 µM; with OVCAR-5 ovarian it was 2.57 µM; in the assay on SW-620 colon, 1.35 µM; in the assay with SNB-19 CNS, 1.89 µM; in the assay on CCRF-CEM leukemia it was 0.265 µM. In addition, the GI50 in the assay with SNB-75 CNS is 1.34 µM; in the assay on SK-MEL-28 melanoma, 2.15 µM; in the assay on UACC-257 melanoma, 1.9 µM. In addition, the TGI amounted to 4.52 µM with SK-OV-3 ovarian; 7.36 µM in the assay on NCI/ADR-RES ovarian; 6.66 µM with OVCAR-5 ovarian; 14.6 µM in the assay with SW-620 colon; 6.73 µM with SNB-19 CNS; 2.99 µM in the assay with CCRF-CEM leukemia. The TGI stood at 3.72 µM in the assay on SNB-75 CNS, 5.31 µM in the assay on SK-MEL-28 melanoma and 5.71 µM with UACC-257 melanoma.
In the case of `COc1ccc2c(O)c3[n+](cc2c1OC)CCc1cc2c(cc1-3)OCO2`, the TGI in the assay on SK-OV-3 ovarian, in the assay on NCI/ADR-RES ovarian, in the assay with OVCAR-5 ovarian, with SW-620 colon, with SNB-19 CNS and with CCRF-CEM leukemia was > 100 µM throughout. The TGI in the assay with SNB-75 CNS, with UACC-257 melanoma and with HCT-15 colon was > 100 µM throughout.
Regarding `C=C/C(C)=C/[C@H](C)C(=O)C[C@H](O)CC1CC(=O)NC(=O)C1`, the TGI is > 100 µM with SK-OV-3 ovarian; > 100 µM with NCI/ADR-RES ovarian; > 100 µM in the assay with OVCAR-5 ovarian; > 100 µM with SW-620 colon; > 94.7 µM with SNB-19 CNS; > 100 µM in the assay with CCRF-CEM leukemia. Moreover, the TGI in the assay on SNB-75 CNS was > 100 µM; in the assay on SK-MEL-28 melanoma, > 91.8 µM; in the assay with UACC-257 melanoma, 97.9 µM; in the assay on HCT-15 colon, > 100 µM.
`Cc1ccc(OP2(=O)Oc3ccc4ccccc4c3CN2c2ccc(Cl)cc2)cc1C` (stereo unspecified): the TGI in the assay with SK-OV-3 ovarian, in the assay with NCI/ADR-RES ovarian, in the assay on OVCAR-5 ovarian, with SW-620 colon, in the assay with SNB-19 CNS and in the assay on CCRF-CEM leukemia was > 100 µM each time. For the same compound, the TGI in the assay with SNB-75 CNS, in the assay on SK-MEL-28 melanoma, in the assay with UACC-257 melanoma and with HCT-15 colon was > 100 µM each time.
Regarding `COC[C@H]1C(=O)NCC(=O)N2NCCC[C@H]2C(=O)N(O)[C@H](C)C(=O)O[C@@H](C(C)C)[C@H](NC(=O)[C@](C)(O)[C@]2(O)CC[C@@H](CC(C)C)[C@H](C)O2)C(=O)N2NCCC[C@@H]2C(=O)N1O`, the GI50 in the assay with SK-OV-3 ovarian was 0.0163 µM; in the assay on OVCAR-5 ovarian it was 0.015 µM; with SNB-75 CNS, < 0.01 µM; in the assay with SK-MEL-28 melanoma it was < 0.01 µM; in the assay on UACC-257 melanoma, 0.015 µM; with HCT-15 colon it was 0.0176 µM. In addition, the TGI in the assay on SK-OV-3 ovarian turned out to be 0.0306 µM; with OVCAR-5 ovarian, 0.0333 µM; in the assay on SNB-75 CNS, 0.011 µM; with SK-MEL-28 melanoma it was 0.0221 µM; in the assay with UACC-257 melanoma, 0.0292 µM; in the assay on HCT-15 colon it was 0.0433 µM.
